Assay type in all cases: physicochemical
A short description of data set [1]: Compressibility (manual tablet press, tensile strength). Conditions: for Diameter / Hardness / Thickness: 80 mg, φ6 mm round tooling, 10 kN, 24 h at room temperature; for Diameter / Hardness / Thickness / Tensile strength: tablets 1 and 2; for Average tensile strength / Tensile strength: T=2H/πDL. The procedure:
ENERPAC manual tablet press was used for compression. 80 mg of Form CSIV and 80 mg of Form I were weighed and added into the dies of a φ6 mm round tooling, compressed at 10 kN manually, then stored at room temperature for 24 h. Diameter (D) and thickness (L) were tested with caliper. When elastic recovery is complete, hardness (H) was tested with an intelligent tablet hardness tester. Tensile strength of the powder was calculated with the following formula: T=2H/πDL. Under a certain force, the greater the tensile strength, the better the compressibility.

Data set [2] in a line: Physical stability upon grinding (XRPD). Conditions: ground manually for 5 minutes in a mortar. The procedure: Form CSV and Form I were grounded manually for 5 minutes in a mortar. Crystalline forms before and after grinding were checked by XRPD. […] Compared with Form I, Form CSV has better physical stability upon grinding.
Data set [3] in a line: Kinetic solubility in SGF. Conditions: for 1 hour Concentration: equilibrated 1 h. The protocol:
When solubility test is used to predict the in vivo performance of a drug, it is critical to simulate in vivo conditions as closely as possible. SGF can be used to simulate the condition in vivo and predict the effects of eating, thus solubility in this medium is closer to that in vivo.
Approximately 5-20 mg of Form CSIV and 5-20 mg Form CSV of the present disclosure were suspended into 2.0 mL of SGF to get suspensions. After equilibrated for 1 h and 24 h, concentrations (μg/mL) of these solutions were measured by UPLC.

Data set [4] in a line: Physical and chemical stability on storage (XRPD, HPLC). The procedure:
A certain amount of Form CSIV of the present disclosure was sealed up and stored under different conditions of 25° C./60% RH, 40° C./75% RH, and 60° C./75% RH. Crystalline form and chemical purity were checked by XRPD and HPLC, respectively.
A certain amount of Form CSV of the present disclosure was stored under different conditions of 40° C./75% RH and 60° C./75% RH in open and sealed dishes. Crystalline form and chemical purity were checked by XRPD and HPLC, respectively.

Data set [5] in a line: Hygroscicity by dynamic vapor sorption (DVS). Conditions: for hygroscopicity class / weight gain: 25° C./80% RH; for hygroscopicity class: Chinese Pharmacopoeia definition; for weight gain: DVS; for crystalline state before and after DVS: cycle of 0-95% RH. The procedure: Dynamic Vapor Sorption (DVS) was measured via an SMS (Surface Measurement Systems Ltd.) intrinsic DVS instrument. Typical Parameters for DVS test are as follows: • Temperature: 25° C. • Gas and flow rate: N2, 200 mL/min • RH range: 0% RH to 95% RH
Dynamic vapor sorption (DVS) analyzer was applied to test hygroscopicity of Form CSIV and Form CSV with certain amount of samples. The weight gains at each relative humidity were recorded in a cycle of 0-95% RH. […] The weight gain of Form CSV under 25° C./80% RH is 0.13%. […] The DVS curve of Form CSIV and Form CSV are shown in FIG. 9 and FIG. 10, respectively.
Description and definition of hygroscopicity (general notice 9103 drug hygroscopicity test guidelines in 2020 edition of Chinese Pharmacopoeia, test at 25° C.±1° C., 80% RH±2% RH. The definition of hygroscopicity in the 9th European Pharmacopoeia 5.11 is consistent with the Chinese Pharmacopoeia). • deliquescent: Sufficient water is absorbed to form a solution; • very hygroscopic: Increase in mass is equal to or greater than 15%; • hygroscopic: Increase in mass is less than 15% and equal to or greater than 2%; • slightly hygroscopic: Increase in mass is less than 2% and equal to or greater than 0.2%. • non hygroscopic or almost non hygroscopic: Increase in mass is less than 0.2%.

[6] abbreviates: 40° C./75% RH (open), one month.
Where [7] appears, read: 40° C./75% RH (sealed), one month.
[8] abbreviates: 60° C./75% RH (sealed), one week.

The values that follow come from patent US12428402B2, “Resmetirom crystal, preparation method for same, and uses thereof” (CRYSTAL PHARMACEUTICAL (SUZHOU) CO., LTD., priority 2019, dated 2025).

SMILES strings stand for the structures. ≈ marks a conversion by molar mass, not a printed value. Where “and” joins values, the source holds several entries; their conditions need not be identical. Equal entries are not always repeated. Entries after “also recorded” stand apart in the source; their conditions may differ.

On to `CC(C)c1cc(Oc2c(Cl)cc(-n3nc(C#N)c(=O)[nH]c3=O)cc2Cl)n[nH]c1=O` [Form I, 2-(3,5-dichloro-4-((5-isopropyl-6-oxo-1,6-dihydropyridazin-3-yl)oxy)phenyl)-3,5-dioxo-2,3,4,5-tetrahydro-1,2,4-triazine-6-carbonitrile, reference compound], for which, in data set [1], the Diameter was 6.01 mm and 6.11 mm; the Hardness is 8.7 kg and 7.9 kg; the Thickness is 2.11 mm and 2.00 mm. In addition, in data set [1] (compressed at 10 kN), the Average tensile strength was determined as 0.43 MPa; the Tensile strength is 0.44 MPa and 0.41 MPa. In addition, the “crystalline state after grinding” value in data set [2] is given as “almost transform into amorphous after grinding; also recorded: transforms into amorphous after grinding”.
Turning to `CC(C)c1cc(Oc2c(Cl)cc(-n3nc(C#N)c(=O)[nH]c3=O)cc2Cl)n[nH]c1=O` [Form CSIV, 2-(3,5-dichloro-4-((5-isopropyl-6-oxo-1,6-dihydropyridazin-3-yl)oxy)phenyl)-3,5-dioxo-2,3,4,5-tetrahydro-1,2,4-triazine-6-carbonitrile], in data set [1], the Diameter is 6.03 mm and 6.04 mm; the Hardness was 28.3 kg and 27.7 kg; the Thickness was 2.12 mm. Further, in data set [1] (compressed at 10 kN), the Average tensile strength came to 1.40 MPa; the Tensile strength was 1.41 MPa and 1.38 MPa. For the same compound, in data set [1] (compressed at 10 kN, XRPD), the “crystalline state before and after tableting” value is “remains unchanged before and after tableting”. In addition, the “1 hour Concentration” value in data set [3] (UPLC) worked out at 11.7 µg/mL. In addition, the “solubility relative to that of Form I” value in data set [3] (equilibrated 1 hour) is on record as 10.6 times. The “solubility relative to that of Form I” value in data set [3] (equilibrated 24 hours) came out at 5.0 times. In addition, the solubility thermodynamic at 24 h in data set [3] (simulated gastric fluid, thermodynamic from solid, equilibrated 24 h, UPLC, read-out: 24 hours Concentration) was 5.5 µg/mL (≈ 12.6 µM). The “time for which the form is stable / crystalline state doesn't change” value in data set [4] (25° C./60% RH sealed) is on record as “at least 6 months”. Further, the Crystalline form result in data set [4] (25° C./60% RH sealed, 6 months) was “Form CSIV”. In addition, the “time for which the form is stable / crystalline state doesn't change” value in data set [4] (40° C./75% RH sealed) is listed as “at least 6 months”. Further, in data set [4] (40° C./75% RH sealed, 6 months), the Crystalline form result is given as “Form CSIV” and the Purity is reported as 99.76%. Also, the “time for which crystalline state doesn't change” value in data set [4] (60° C./75% RH sealed) is on record as “at least 1 month”. For the same compound, the “time for which the form is stable” value in data set [4] (60° C./75% RH sealed, in words) was “at least one month”. For the same compound, in data set [4] (60° C./75% RH sealed, one month), the Crystalline form entry was “Form CSIV”. In data set [4] (Initial), the Crystalline form result is reported as “Form CSIV” and the Purity was found to be 99.80%. In data set [5], the hygroscopicity class entry was “slightly hygroscopic (Increase in mass is less than 2% and equal to or greater than 0.2%)”; the weight gain is on record as 0.58%; the “crystalline state before and after DVS” value is “remains unchanged before and after DVS”.
Regarding `CC(C)c1cc(Oc2c(Cl)cc(-n3nc(C#N)c(=O)[nH]c3=O)cc2Cl)n[nH]c1=O` [Form CSV, 2-(3,5-dichloro-4-((5-isopropyl-6-oxo-1,6-dihydropyridazin-3-yl)oxy)phenyl)-3,5-dioxo-2,3,4,5-tetrahydro-1,2,4-triazine-6-carbonitrile], the “crystalline state after grinding” value in data set [2] was “does not change before and after grinding; also recorded: doesn't change after grinding”. In addition, the “1 hour Concentration” value in data set [3] (UPLC) is 7.8 µg/mL. In addition, the “solubility relative to that of Form I” value in data set [3] (equilibrated 1 hour) was found to be 7.1 times; in data set [3] (equilibrated 24 hours) it was 8.7 times. Besides, in data set [3] (equilibrated 24 h, UPLC), the “24 hours Concentration” value was 9.6 µg/mL. The Crystalline form entry in data set [4] (setting [6]) was “Form CSV”; in data set [4] (setting [7]) it was “Form CSV”; in data set [4] (60° C./75% RH (open), one week) it was “Form CSV”; in data set [4] (setting [8]), “Form CSV”; in data set [4] (Initial), “Form CSV”. The Purity in data set [4] (setting [6]) was 99.81%; in data set [4] (setting [7]), 99.85%; in data set [4] (60° C./75% RH (open), one week), 99.86%; in data set [4] (setting [8]) it was 99.87%. The “chemical purity during storage” value in data set [4] (40° C./75% RH one month, 60° C./75% RH one week) is “above 99.8%”. In addition, in data set [4] (40° C./75% RH open and sealed dishes, in words), the “time for which the form is stable” value is listed as “at least one months”. In data set [4] (40° C./75% RH sealed, in words), the “time for which crystalline state doesn't change” value is recorded as “at least one month”. For the same compound, the “time for which the form is stable / crystalline form doesn't change” value in data set [4] (60° C./75% RH open and sealed, in words) is reported as “at least one week”. In addition, the hygroscopicity class result in data set [5] was “non hygroscopic or almost non-hygroscopic”. In data set [5], this compound yielded a weight gain of 0.13%. For the same compound, in data set [5], the “crystalline state before and after DVS” value is “remains unchanged before and after DVS”.
